Some test systems named below: SNB-19 CNS; M14 melanoma; HL-60(TB) leukemia; OVCAR-8 ovarian; SK-MEL-28 melanoma; ACHN renal; IGROV1 ovarian; HOP-92 NSCLC; HT29 colon; EKVX NSCLC; TK-10 renal; UO-31 renal; SN12C renal; NCI-H226 lung; COLO 205 colon; SK-MEL-5 melanoma; HCT-15 colon; RXF 393 renal; MOLT-4 leukemia; HOP-62 NSCLC.
Assay in all cases: inhibition of tumour cell growth, NCI panel, 48 h

7 molecules from PubChem BioAssay (NCI) can be followed below.

Structures are written as SMILES.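 96-well plates; 48 h exposure; 5 concentrations. Endpoints by linear interpolation between flanking doses. Not reached: highest tested concentration assigned. TGI: concentration producing complete growth inhibition.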 A value given as a limit tells only on which side of the number the result lay.

Turning to `CC(=O)OC(C)C1C2=C(C(=O)CC1(C)O)C(=O)c1c(ccc(-c3ccc4c(c3O)C(=O)C3=C(C4=O)C(C(C)OC(C)=O)C(C)(O)CC3=O)c1O)C2=O` (stereo not drawn), the TGI is 24 µM in the test with SNB-19 CNS; 4.3 µM with M14 melanoma; above 100 µM with HL-60(TB) leukemia; 7.42 µM in the test with OVCAR-8 ovarian; 4.7 µM in the test on SK-MEL-28 melanoma; 3.22 µM with ACHN renal. The TGI in the test on IGROV1 ovarian turned out to be 22.4 µM; in the test with HOP-92 NSCLC it was 3.08 µM; with HT29 colon, 3.98 µM; with EKVX NSCLC it was 26.1 µM; in the test with TK-10 renal it was 5.41 µM; in the test on UO-31 renal it was 9.16 µM. Moreover, the TGI came to 6.58 µM with SN12C renal; 27.8 µM in the test on NCI-H226 lung; 1.92 µM in the test on COLO 205 colon; 8.22 µM with SK-MEL-5 melanoma; 5.49 µM with HCT-15 colon; 3.59 µM in the test on RXF 393 renal. Further, the TGI is above 100 µM with MOLT-4 leukemia and 33.4 µM in the test on HOP-62 NSCLC.

As to `CC(C)(C)N1C(C(=O)c2ccccc2)C1c1ccccc1` (stereo not drawn), the TGI in the test on SNB-19 CNS, in the test with M14 melanoma, with HL-60(TB) leukemia, in the test on OVCAR-8 ovarian, in the test with SK-MEL-28 melanoma and in the test on IGROV1 ovarian was above 100 µM in each case. For the same molecule, the TGI in the test with HOP-92 NSCLC, in the test on HT29 colon, with EKVX NSCLC, in the test on TK-10 renal, in the test with SN12C renal and in the test on NCI-H226 lung was above 100 µM throughout. In addition, the TGI with COLO 205 colon, in the test with SK-MEL-5 melanoma, with HCT-15 colon, in the test with RXF 393 renal, with MOLT-4 leukemia and in the test with HOP-62 NSCLC was above 100 µM each time.

In the case of `O=C(CSc1nc2ccccc2s1)c1sc2sc3ccccc3[n+]2c1[O-]`, the TGI in the test with SNB-19 CNS, in the test on M14 melanoma, in the test on HL-60(TB) leukemia, in the test with OVCAR-8 ovarian, with SK-MEL-28 melanoma and with ACHN renal was above 100 µM each time. Further, the TGI in the test with IGROV1 ovarian, with HOP-92 NSCLC, in the test on HT29 colon, with EKVX NSCLC, in the test on TK-10 renal and in the test with UO-31 renal was above 100 µM each time. Further, the TGI in the test on SN12C renal, in the test with NCI-H226 lung, in the test with COLO 205 colon, in the test with SK-MEL-5 melanoma, in the test on HCT-15 colon and in the test on RXF 393 renal was above 100 µM in each case. The TGI in the test with MOLT-4 leukemia and with HOP-62 NSCLC was above 100 µM throughout.

Turning to `C#CCOc1c(C(=O)OCC)c(=O)n(C)c2ccccc12`, the TGI in the test with SNB-19 CNS, in the test on M14 melanoma, in the test on HL-60(TB) leukemia, with OVCAR-8 ovarian, in the test with SK-MEL-28 melanoma and in the test with ACHN renal was above 100 µM throughout. Also, the TGI with IGROV1 ovarian, in the test on HOP-92 NSCLC, with HT29 colon, with EKVX NSCLC, in the test with TK-10 renal and in the test with UO-31 renal was above 100 µM throughout. In addition, the TGI with SN12C renal, in the test on NCI-H226 lung, in the test on COLO 205 colon, with SK-MEL-5 melanoma, in the test with HCT-15 colon and in the test on MOLT-4 leukemia was above 100 µM throughout.

For the molecule `CCOC(=O)C12CCC(=O)C=C1[C@@H](C)C(=O)CC2` (stereo partly drawn), the TGI with M14 melanoma, with HL-60(TB) leukemia, with OVCAR-8 ovarian, in the test with SK-MEL-28 melanoma, in the test with ACHN renal and in the test on IGROV1 ovarian was above 100 µM throughout. Further, the TGI in the test on HOP-92 NSCLC, in the test on HT29 colon, with EKVX NSCLC, in the test on TK-10 renal, in the test with UO-31 renal and in the test with SN12C renal was above 100 µM in each case. The TGI in the test on NCI-H226 lung, in the test on COLO 205 colon, in the test on SK-MEL-5 melanoma, in the test with HCT-15 colon, in the test on RXF 393 renal and in the test on HOP-62 NSCLC was above 100 µM in each case.

Consider `N#CCCCC[N+]12CN3CN(CN(C3)C1)C2`, for which the TGI in the test on SNB-19 CNS, with M14 melanoma, with HL-60(TB) leukemia, with OVCAR-8 ovarian, in the test on SK-MEL-28 melanoma and in the test with ACHN renal was above 100 µM in each case. For the same molecule, the TGI in the test on IGROV1 ovarian, in the test on HOP-92 NSCLC, with HT29 colon, with EKVX NSCLC, with TK-10 renal and with UO-31 renal was above 100 µM throughout. The TGI with SN12C renal, with NCI-H226 lung, in the test with COLO 205 colon, in the test on SK-MEL-5 melanoma, in the test on HCT-15 colon and in the test with RXF 393 renal was above 100 µM in each case. For the same molecule, the TGI in the test with MOLT-4 leukemia and in the test on HOP-62 NSCLC was above 100 µM in each case.

In the case of `Nc1nc(N)c2c(n1)NC(=O)c1c(c3ccccc3n1Cc1ccc(Cl)cc1)C2`, the TGI in the test on SNB-19 CNS is above 100 µM; in the test with M14 melanoma, above 100 µM; in the test with HL-60(TB) leukemia it was 39.4 µM; in the test with OVCAR-8 ovarian, 96.6 µM; in the test on SK-MEL-28 melanoma it was above 100 µM; with IGROV1 ovarian it was above 100 µM. The TGI in the test on HOP-92 NSCLC was 20.4 µM; with HT29 colon, above 100 µM; in the test with EKVX NSCLC, above 100 µM; in the test on TK-10 renal, 46.9 µM; in the test with UO-31 renal, above 100 µM; in the test with SN12C renal, 38.2 µM. Further, the TGI with NCI-H226 lung was above 100 µM; with COLO 205 colon it was 30.5 µM; in the test on SK-MEL-5 melanoma it was 28.6 µM; in the test with HCT-15 colon, 35.6 µM; in the test on RXF 393 renal, 33.4 µM; in the test on MOLT-4 leukemia it was 72 µM. In the test with HOP-62 NSCLC, this molecule displayed a TGI of 57.5 µM.
